Measured values: patent US7220775B2, “Compound useful for the treatment of neuropathic pain” (H. Lundbeck A/S, priority 2002, dated 2007)

Experiments:
[1] = target: NE transporter (rNE Uptk) (Rattus norvegicus, UniProt Q9WTR4); assay: Binding at native NE transporter; details: Table 7, native transporter
Experimental: (§1) The binding properties of the compounds of the present invention were evaluated at one or more cloned receptors or native, tissue-derived transporters, using protocols described below.
(§2) The methods to determine binding affinity at native transporters are described in the following publications: 5HT transporter and NE transporter (Owens et al., 1997), and DA transporter (Javitch et al, 1984).

[2] = system: NE transporter (rNE Uptk); assay: Binding at native NE transporter; design: species or system rat; details: Table 8
Experimental: as §1, §2

human GAL1 receptor = target: T1, human GAL1 receptor (Homo sapiens, UniProt P47211); assay: Radioligand binding at cloned human GAL1 receptor; details: Table 2, pyrimidines, read-out: Ki (nM) GalR1
T1 construct: expressed in transfected cells
T1 sequence (P47211 1-349): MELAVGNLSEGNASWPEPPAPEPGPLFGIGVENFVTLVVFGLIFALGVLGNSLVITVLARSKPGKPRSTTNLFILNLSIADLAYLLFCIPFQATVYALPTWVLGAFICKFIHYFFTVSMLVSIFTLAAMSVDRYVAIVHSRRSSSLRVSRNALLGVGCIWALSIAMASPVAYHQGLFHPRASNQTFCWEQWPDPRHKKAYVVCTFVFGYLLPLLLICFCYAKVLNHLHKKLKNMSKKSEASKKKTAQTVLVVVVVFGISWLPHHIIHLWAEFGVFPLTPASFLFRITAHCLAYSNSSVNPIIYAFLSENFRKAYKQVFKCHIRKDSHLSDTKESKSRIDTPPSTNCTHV
Experimental: (§3) The present invention provides for a method of determining the binding affinity of a GAL3 antagonist, wherein the GAL3 antagonist is dissolved in a “suitable solvent”. A “suitable solvent” means one which permits the measurement of binding affinity of the GAL3 antagonist to the human GAL3 receptor at concentrations less than 1 μM, preferably less than 100 nM. Examples of solvents include, but are not limited to, DMSO, ethanol, N,N-dimethylacetamide, or water. For indolones, the preferred solvent is 3% DMSO (final concentration in the assay). For pyrimidines, the preferred solvent is 1% ethanol/0.09% polypuronic acid F-127 (final concentration in the assay). For any other type of compounds, the preferred solvent is the solvent which permits the measurement of binding affinity of a GAL3 antagonist at the lowest concentration. Once a suitable solvent is ascertained for the binding assay of the human GAL3 receptor, the same solvent is used in assays to determine the binding affinity for instance, at the GAL1 receptor.
(§4) LM(tk−) cells were stably transfected with the human GAL1 or GAL3 receptor. CHO cells were stably transfected with the human GAL2 receptor.
(§5) cDNAs for the human and rat GAL1, and human and rat GAL3 receptors were transfected with a G-418 resistant gene into the mouse fibroblast LM(tk−) cell line by a calcium phosphate transfection method (Cullen, 1987). Stably transfected cells were selected with G-418. Human and rat GAL2 receptors were similarly transfected into CHO cells.
Membranes were harvested from stably transfected LM(tk−) cells. Adherent cells were washed twice in ice-cold phosphate buffered saline (138 mM NaCl, 8.1 mM Na2HPO4, […] KCl, 1.2 mM KH2PO4, 0.9 mM CaCl2, 0.5 mM MgCl2, pH 7.4) and lysed by sonication in ice-cold sonication buffer (20 mM Tris-HCl, 5 mM EDTA, pH 7.7). Large particles and debris were cleared by low speed centrifugation (200×g, 5 min, 4° C.). Membranes were collected from the supernatant fraction by centrifugation (32,000×g, 18 min, 4° C.), washed with ice-cold hypotonic buffer, and collected again by centrifugation (32,000×g, 18 min, 4° C.). The final membrane pellet was resuspended by sonication into a small volume of ice-cold binding buffer (˜1 ml for every 5 plates: 10 mM NaCl, […] HEPES, 0.22 mM KH2PO4, 1.26 mM Cal2, 0.81 mM MgSO4, pH 7.4). Protein concentration was measured by the Bradford method (Bradford, 1976) using Pio-Rad Reagent, with bovine serum albumin as a standard. Membranes were held on ice for up to one hour and used fresh, or flash frozen and stored in liquid nitrogen. Membranes were prepared similarly from CHO cells. […]
(§6) Binding data were analyzed using nonlinear regression and statistical techniques available in the GraphPAD Prism package (San, Diego, Calif.). […]

human GAL2 receptor = target: T2, human GAL2 receptor (Homo sapiens, UniProt O43603); assay: Radioligand binding at cloned human GAL2 receptor; details: Table 2, pyrimidines, read-out: Ki (nM) GalR2
T2 construct: expressed in transfected cells
T2 sequence (O43603 1-387): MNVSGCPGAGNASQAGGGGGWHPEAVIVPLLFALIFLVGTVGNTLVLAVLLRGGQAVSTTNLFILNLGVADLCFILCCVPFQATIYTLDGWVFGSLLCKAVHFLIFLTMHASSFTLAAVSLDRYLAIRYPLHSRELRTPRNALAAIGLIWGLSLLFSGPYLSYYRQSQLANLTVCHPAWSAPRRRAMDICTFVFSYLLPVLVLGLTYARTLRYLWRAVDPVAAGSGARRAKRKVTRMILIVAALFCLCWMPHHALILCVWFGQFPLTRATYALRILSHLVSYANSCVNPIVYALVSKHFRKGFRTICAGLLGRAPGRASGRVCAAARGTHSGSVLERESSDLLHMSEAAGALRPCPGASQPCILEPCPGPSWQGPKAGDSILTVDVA
Experimental: as §3, §4, §5
Membranes were harvested from stably transfected LM(tk−) cells. Adherent cells were washed twice in ice-cold phosphate buffered saline (138 mM NaCl, 8.1 mM Na2HPO4, […] KCl, 1.2 mM KH2PO4, 0.9 mM CaCl2, 0.5 mM MgCl2, pH 7.4) and lysed by sonication in ice-cold sonication buffer (20 mM Tris-HCl, 5 mM EDTA, pH 7.7). […] Protein concentration was measured by the Bradford method (Bradford, 1976) using Pio-Rad Reagent, with bovine serum albumin as a standard. […]
as §6

[3] = system: neuropathic rats (chronic constriction nerve injury); assay: Chronic constriction nerve injury model of neuropathic pain: mechanical allodynia (Von Frey filaments); assay type: in vivo, rat; details: 10 mg/kg i.p.
Experimental: (§7) The aim of this study was to assess the potential analgesic effects of Example 92 following intraperitoneal administration at the doses of 3, 10 and 30 mg/kg, respectively, in an animal model of neuropathic pain. A peripheral mononeuropathy was induced in the right hind limb of rats following a chronic constriction nerve injury (Bennett and Xie, 1988), and the development of mechanical allodynia and thermal hyperalgesia was monitored using established behavioral tests (Attal, N., et al., 1990; Hargreaves, K., et al., 1988).
(§8) Male Sprague-Dawley rats within the weight range of 200-225 g, and approximate age 7-9 weeks, were allowed to acclimate for a minimum of 6 days prior to the start of the behavioral testing.
(§9) All rats underwent a chronic constriction nerve injury, and of these, those that successfully developed allodynia and hyperalgesia were allocated to treatment groups.
(§10) There were 5 separate treatment groups (with a minimum of 10 rats per group). The treatment groups were as follows: • Group C received Morphine at 10 mg/kg (n=10) • Group D received Vehicle for Example 92* at 1 ml/kg (n=10) (* 100% DMSO) • Group E received Example 92 at 30 mg/kg (n=10) • Group F received Example 92 at 3 mg/kg (n=10) • Group G received Example 92 at 10 mg/kg (n=10)
(§11) The dose volume for all treatments was 1 ml/kg. Each rat received a single i.p. dose of the test substance, reference substance or vehicle on Day 12 PO. Test substance and vehicle dosing solutions were encoded (C-G) so that the observers were unaware of the identity of the treatment groups.
(§12) The behavioral tests (Von Frey filament and Thermal Plantar Tests—see below) were performed on all rats on 3 separate days prior to […], to establish baseline values. The pre-surgery baseline values were calculated as the mean of the last 2 days testing (the data from the first day of testing were not included as this was classed as part of the acclimating period). The sequence of tests was always mechanical allodynia (Von Frey Test) followed by thermal hyperalgesia (Thermal Plantar Test), with a minimum 5 min period allowed between the 2 tests.
Each animal was placed in a wire mesh cage and a series of Von Frey filaments (ranging from filament handle number 3.61 to 6.10) applied to the plantar surface of the hind paw, from below. The filaments were applied in ascending order (starting with the weakest force) and the withdrawal threshold for both the ipsilateral and contralateral hind paws was evaluated. Each filament was indented on the plantar surface of the foot to the point where it just started to bend, and this was repeated approximately 8-10 times per filament at a frequency of approximately 1 Hz. The withdrawal threshold was defined as the lowest force of two or more consecutive Von Frey filaments to elicit a reflex withdrawal response.
The animals were surgically prepared over 5 days. Each rat was anaesthetized with sodium pentobarbitone (60 mg/ml; 0.6 ml/kg dose, intraperitonealy; batch number 00230; expiry date 22 May 3) and then supplemented as necessary with isoflurane (1-3% in oxygen). The surface around the incision site was shaved and then sterilized with surgical spirit. Under aseptic conditions the right sciatic nerve was exposed by blunt dissection at mid-thigh level and approximately 1 cm of nerve was freed of adhering connective tissue. Four chromic cat gut (4.0) ligatures, spaced at approximately 1 mm inzervals, were then tied so as to barely constrict the nerve (as viewed under 40× magnification) to induce a peripheral mononeuropathy in the right hind limb. The overlying muscle and skin were then closed in layers using suture material, and the anesthesia discontinued. On recovery from anesthesia, the rats were re-housed with their cage mates on soft padded bedding overnight (to reduce the risk of infection) and subsequently on sawdust bedding following full recovery. The animals were allowed 4 full days to recover before the behavioral testing was recommenced. […]

[4] = system: neuropathic rats (chronic constriction nerve injury); assay: Chronic constriction nerve injury model of neuropathic pain: thermal hyperalgesia (Thermal Plantar Test); assay type: in vivo, rat; details: 10 mg/kg i.p.
Experimental: as §7, §8, §9, §10, §11, §12
Each rat was placed in a clear plastic chamber with a glass floor and allowed a short period to acclimatize to the new environment (approximately 5 min.). The animals were then challenged with a radiant Infrared (IR) heat source, directed at the plantar surface of the hind paw from below, and the withdrawal latency of both the ipsilateral and contralateral hind paws was evaluated. The infrared intensity was set at IR50 and the maximum length of exposure to the IR source was 18 s. Non-responding animals were allocated a withdrawal latency of 18 s.
The animals were surgically prepared over 5 days. […]

Cc1ccc(Nc2cc(N3CCCCC3)nc(N(C)CCc3c[nH]c4ccccc34)n2)cc1 [Example 11]
Ki [1]: > 50 µM | selectivity ratio rNE Uptk (Ki rNE Uptk / Ki hGAL3) [2]: >100

CN(CCc1c[nH]c2ccccc12)c1nc(Nc2ccc(F)c(F)c2)cc(N2CCCCC2)n1 [Example 15]
Ki [1]: > 50 µM | selectivity ratio rNE Uptk (Ki rNE Uptk / Ki hGAL3) [2]: >100

COc1cccc(Nc2cc(N3CCCCC3)nc(N(C)CCc3c[nH]c4ccccc34)n2)c1 [Example 17]
Ki [1]: 18.3 µM | selectivity ratio rNE Uptk (Ki rNE Uptk / Ki hGAL3) [2]: >100

Cc1ccc(Nc2cc(N3CCCCC3)nc(N(C)CCc3ccccc3)n2)cc1 [Example 22]
Ki [1]: 13.1 µM | selectivity ratio rNE Uptk (Ki rNE Uptk / Ki hGAL3) [2]: >100

Cc1ccc(Nc2cc(N3CCCCC3)nc(N3CCN(c4ncccc4C(F)(F)F)CC3)n2)cc1 [Example 34]
Ki [1]: > 50 µM | selectivity ratio rNE Uptk (Ki rNE Uptk / Ki hGAL3) [2]: >100

Cc1ccccc1Nc1cc(N(C)C)nc(Nc2ccccc2)n1 [Example 51]
Ki (human GAL1 receptor): > 5000 nM | Ki (human GAL2 receptor): > 5000 nM

CN(C)c1cc(Nc2ccc(Cl)c(Cl)c2)nc(Nc2ccccc2)n1 [Example 60]
Ki [1]: 46.1 µM

C[C@H]1CC2CC([C@@H]1Nc1cc(N(C)C)nc(Nc3ccccc3)n1)C2(C)C (stereo partly shown) [Example 71]
Ki (human GAL1 receptor): > 5000 nM

Cc1ccc(Nc2cc(N(C)C)nc(N(C)CCc3c[nH]c4ccccc34)n2)cc1 [Example 77]
Ki [1]: 28.1 µM | selectivity ratio rNE Uptk (Ki rNE Uptk / Ki hGAL3) [2]: >100

O=C1C(=Nc2cccc(Cl)c2)c2ccccc2N1c1ccccc1 [Example 94, 3-[(3-CHLOROPHENYL)IMINO]-1-PHENYL-1,3-DIHYDRO-2H-INDOL-2-ONE]
Ki [1]: 4.88 µM | selectivity ratio rNE Uptk (Ki rNE Uptk / Ki hGAL3) [2]: >30

O=C1C(=Nc2ccc(C(F)(F)F)cc2)c2ccccc2N1c1ccccc1 [Example 95, 1-PHENYL-3-[[4-(TRIFLUOROMETHYL)PHENYL]IMINO]-1,3-DIHYDRO-2H-INDOL-2-ONE]
Ki [1]: 6.1 µM | selectivity ratio rNE Uptk (Ki rNE Uptk / Ki hGAL3) [2]: >100

O=C1C(=Nc2ccc(Cl)cc2)c2ccccc2N1c1ccccc1 [Example 97, 3-[(4-CHLOROPHENYL)IMINO]-1-PHENYL-1,3-DIHYDRO-2H-INDOL-2-ONE]
Ki [1]: 4.41 µM | selectivity ratio rNE Uptk (Ki rNE Uptk / Ki hGAL3) [2]: >30

O=C1C(=Nc2ccc(Br)cc2)c2ccccc2N1c1ccccc1 [Example 98, 3-[(4-BROMOPHENYL)IMINO]-1-PHENYL-1,3-DIHYDRO-2H-INDOL-2-ONE]
Ki [1]: 5.5 µM | selectivity ratio rNE Uptk (Ki rNE Uptk / Ki hGAL3) [2]: >100

CN1CC[C@]23c4c5ccc(O)c4O[C@H]2[C@@H](O)C=C[C@H]3[C@H]1C5 [morphine, reference compound]
contralateral paw effects (Von Frey) ([3]; 30 and 90 min): significant contralateral effects | effect on withdrawal threshold of the nerve-injured hind paw (Von Frey) ([3]; up to 90 min PD): significantly increased | effect on withdrawal latency of the nerve-injured hind paw to the thermal plantar device ([4]; approx. 40 and 100 min PD): significantly increased | withdrawal latency to a noxious heat stimulus, nerve-injured and contralateral hind paws ([4]; up to 100 min PD): significant increase
